Like-named read-outs stand apart in the source and are kept apart here. Marks after values point to notes of the source that are not given here.
How the values were obtained:
[1] = Plasma Stability Assay (Example A2), mouse plasma; format: in vitro ADME; conditions: for Metabolite (%): mouse; for Prodrug (%): Mouse Plasma, 37° C., prodrug remaining
Method: (§1) Each test was carried out in duplicate for each time point; 0 min, 15 min, 30 min, 60 min, 120, 240 min. […]

[2] = Pharmacokinetics of 358, single IV 2 mg/kg, plasma and brain; format: in vivo, male C57BL/6 mice; conditions: 358 IV 2 mg/kg, mice
Method: Total fifteen male mice were used in this study with n=3 mice/time point with sparse sampling study design. Animals were administered through intravenous route with solution formulation of 358 at 2 mg/kg dose.
The extraction procedure for plasma/brain samples and the spiked plasma/brain calibration standards were identical (PMSF Stabilized Plasma and Brain used for Preparation of calibration standards):
(§2) A 20 μL of study sample plasma/brain or spiked plasma/brain calibration standard was added to individual pre-labeled micro-centrifuge tubes followed by 200 μL of internal standard prepared in acetonitrile (Rosuvastatin+Cetrizine, 50 ng/mL) was added except for blank, where 200 μL of acetonitrile was added. Samples were vortexed for 5 minutes. Samples were centrifuged for 10 minutes at a speed of 4000 rpm at 4° C. Following centrifugation, 200 μL of clear supernatant was transferred in 96 well plates and analyzed using LC-MS/MS.
Note: Brain samples were diluted (1-part of tissue: 2-part of buffer) and homogenized. The homogenate was submitted for bioanalysis and the concentrations (ng/mL) received were corrected with dilution factor (3×) and the final reported concentrations were represented in ng/g.
The plasma and brain concentration-time data of 358 and 001 were used for the pharmacokinetic analysis.

[3] = Hydrolysis Assay - Condition 1 (SGF); format: physicochemical; conditions: Condition 1: SGF with pepsin pH 1.5, 37° C., 0.5 mM
Method: 50 uL of compound (10 mM) in DMSO was diluted into 950 uL of Simulated Gastric Fluid (SGF) with pepsin (pH 1.5) to a final concentration of 0.5 mM. The hydrolysis kinetics were conducted at 37° C. and measured by LCMS at a certain time interval.
(§3) The corresponding LCMS chromatogram were recorded and the conversions were calculated by integration of each peak.
(§4) • 1) LCMS spectra were obtained using Agilent 1200G1956A or SHIMADZU LCMS-2020. • Standard LCMS conditions were as follows (running time 1.55 minutes): • Acidic condition: Mobile Phase A: 0.0375% TFA in water (v/v). Mobile Phase B: 0.01875% TFA in acetonitrile (v/v); Column: Kinetex EVO C18 30*2.1 mm, 5 μm. • Basic condition: Mobile Phase A: 0.025% NH3·H2O in water (v/v). Mobile Phase B: Acetonitrile; Column: Kinetex EVO C18 2.1×30 mm, 5 μm. • 2) Conversion (%)=peak area 1/(peak area 1+peak area 2)*100%, peak area 1 is the integration of hydrolyzed product, peak area 2 is the integration of starting material.

[4] = Hydrolysis Assay - Condition 2 (DI Water); format: physicochemical; conditions: 25° C., 0.5 mM
Method: 50 uL of compound (10 mM) in DMSO was diluted into 950 uL of DI water to a final concentration of 0.5 mM. The hydrolysis kinetics were conducted at 25° C. and measured by LCMS at a certain time interval.
as §3, §4

[5] = Plasma Stability Assay (Example A2), human plasma; format: in vitro ADME; conditions: 37° C., prodrug remaining
Method: as §1

[6] = Plasma Stability Assay (Example A3), rat plasma; format: in vitro ADME; conditions: 10 μM, 37° C., prodrug remaining
Description: (§5) The data is represented in the table below.

[7] = Plasma Stability Assay (Example A3), human plasma; format: in vitro ADME; conditions: 10 μM, 37° C., prodrug remaining
Description: as §5

[8] = Metabolic Stability in Human Hepatocytes; format: in vitro ADME; conditions: cryopreserved human hepatocytes, 5×10^5 viable cells/mL, 37° C.
Method: A 2.5 uL aliquot of 100 μM test compound was incubated with 247.5 uL of cryopreserved hepatocytes suspended in serum-free incubation medium at 5×10^5 viable cells/mL. The mixture was incubated at 37° C. and shaken at 500 rpm for the designated time points (0.5, 15, 30, 60, 90, or 120 min). At each time point, 25 μL aliquot of incubation mixture was transferred to 125 μL of cold acetonitrile containing internal standard, followed by centrifugation for 30 min at 3,220 g. 100 μL of supernatant was mixed with 100 μL of distilled water for analysis by LC-MS/MS. Peak areas were determined from extracted ion chromatograms and in vitro half-life (t1/2) was determined from the concentration vs time regression slope, in vitro t1/2=0.693/k. Conversion of the in vitro t1/2 (in min) into the in vitro intrinsic clearance (in vitro CLint, in μL/min/10^6 cells) is done using: in vitro CLint=kV/N.

[9] = format: in vivo, male C57BL/6 mice; conditions: 323 IV 2 mg/kg, mice; for CL: marked NR (not reportable)
Method: Total fifteen male mice were used in this study with n=3 mice/time point with sparse sampling study design. Animals were administered through intravenous route with solution formulation of 323 at 2 mg/kg dose.
as §2, with “The extraction procedure for plasma/brain samples and the spiked plasma/brain calibration standards were identical (PMSF Stabilized Plasma and Brain used for Preparation of calibration standards): A” for “A”
Brain samples were diluted (1-part of tissue: 2-part of buffer) and homogenized. The homogenate was submitted for bioanalysis and the concentrations (ng/mL) received were corrected with dilution factor (3×) and the final reported concentrations were represented in ng/g.
The plasma and brain concentration-time data of 323 and 001 were used for the pharmacokinetic analysis.

In the case of `COc1ccc([C@@]23CCC(OC(=O)OC(C)(C)C)=C[C@@H]2N(C)CC3)cc1OC` [Compound 358, [(3aS,7aS)-3a-(3,4-dimethoxyphenyl)-1-methyl-3,4,5,7a-tetrahydro-2H-indol-6-yl]tert-butyl carbonate], the “Metabolite (%)” value ([1]; 0 min, 5 µM) is reported as 58.8%, the “Metabolite (%)” value ([1]; 15 min, 5 µM) is reported as 65.4% and the “Metabolite (%)” value ([1]; 30 min, 5 µM) is reported as 73.2%. For the same compound, the “Metabolite (%)” value ([1]; 60 min) was 76.9%, the “Metabolite (%)” value ([1]; 120 min) was 61.8% and the “Metabolite (%)” value ([1]; 240 min) was 62.2%. For the same compound, the “brain concentrations quantifiable up to” value [2] was ≤ 0.08 h and the “plasma concentrations quantifiable up to” value [2] was “up to 0.25 h”.
For `COc1ccc([C@@]23CCC(OP4(=O)OCC(C)(C)CO4)=C[C@@H]2N(C)CC3)cc1OC` [Compound 323, 2-[[(3aS,7aS)-3a-(3,4-dimethoxyphenyl)-1-methyl-3,4,5,7a-tetrahydro-2H-indol-6-yl]oxy]-5,5-dimethyl-1,3,2λ5-dioxaphosphinane 2-oxide], the “Conversion (%)” value ([3]; 1 min) was 0%, the “Conversion (%)” value ([3]; 5 min) was 0% and the “Conversion (%)” value ([3]; 30 min) was 0%. The “Conversion (%)” value ([3]; 1 h) was 0%, the “Conversion (%)” value ([3]; 4 h) was 0% and the “Conversion (%)” value ([3]; 24 h) was 0%. For the same compound, the “Conversion (%)” value ([4]; 1 min) was 0%, the “Conversion (%)” value ([4]; 5 min) was 0% and the “Conversion (%)” value ([4]; 30 min) was 0%. For the same compound, the “Conversion (%)” value ([4]; 1 h) was 0%, the “Conversion (%)” value ([4]; 4 h) was 0% and the “Conversion (%)” value ([4]; 24 h) was 0%. The “Prodrug (%)” value ([1]; 0 min) was 100.0%, the “Prodrug (%)” value ([1]; 15 min) was >99% and the “Prodrug (%)” value ([1]; 30 min) was >99%. The “Prodrug (%)” value ([1]; 60 min) was 94.1%, the “Prodrug (%)” value ([1]; 120 min) was 71.9% and the “Prodrug (%)” value ([1]; 240 min) was 50.3%. For the same compound, the “Prodrug (%)” value ([5]; 0 min) was 100%, the “Prodrug (%)” value ([5]; 15 min) was 76.6% and the “Prodrug (%)” value ([5]; 30 min) was 64.5%. The “Prodrug (%)” value ([5]; 60 min) was 38.1%, the “Prodrug (%)” value ([5]; 120 min) was 12.8% and the “Prodrug (%)” value ([5]; 240 min) was 1.60%. For the same compound, the “Prodrug (%)” value ([6]; 0 min) was 100.00%, the “Prodrug (%)” value ([6]; 10 min) was >99% and the “Prodrug (%)” value ([6]; 30 min) was 95.5%. For the same compound, the “Prodrug (%)” value ([6]; 60 min) was 82.0%, the “Prodrug (%)” value ([6]; 120 min) was 58.8% and the “Prodrug (%)” value ([6]; 240 min) was 34.0%. For the same compound, the “Prodrug (%)” value ([7]; 0 min) was 100.00%, the “Prodrug (%)” value ([7]; 10 min) was 86.9% and the “Prodrug (%)” value ([7]; 30 min) was 70.8%. The “Prodrug (%)” value ([7]; 60 min) was 52.7%, the “Prodrug (%)” value ([7]; 120 min) was 27.0% and the “Prodrug (%)” value ([7]; 240 min) was 9.3%. The “t1/2” value [8] was 327 min, the Brain-Kp [9]; 323 was 0.07 and the “brain concentrations quantifiable up to” value [9]; 323 was ≤ 0.5 h. For the same compound, the “Brain concentrations (mean)” value ([9]; 323, 0.08 h) was 22.15 ng/g, the “Plasma concentrations (mean)” value ([9]; 323, 0.08 h) was 332.15 ng/mL and the “Brain concentrations (mean)” value ([9]; 323, 0.25 h) was 8.97 ng/g. The “Plasma concentrations (mean)” value ([9]; 323, 0.25 h) was 91.59 ng/mL, the “Plasma concentrations (mean)” value ([9]; 323, 0.5 h) was 26.34 ng/mL and the “Brain concentrations (mean)” value ([9]; 323, 0.5 h, average of two values) was 4.43^d ng/g. The “Plasma concentrations (mean)” value ([9]; 323, 1 h) was 4.05 ng/mL, the “Plasma concentrations (mean)” value ([9]; 323, 2 h, single value, excluded from data analysis) was 1.03^c ng/mL and the “C0 (back extrapolated concentration)” value ([9]; 323 in Brain) was 33.89 ng/mL. For the same compound, the T1/2 ([9]; 323 in Brain) was 10.8 min, the Vss ([9]; 323 in Brain) was 61.73 L/kg and the CL ([9]; 323 in Brain) was “NR (4350.55) mL/min/kg”. For the same compound, the AUClast ([9]; 323 in Plasma) was 96.00 ng·h/mL, the “C0 (back extrapolated concentration)” value ([9]; 323 in Plasma) was 609.01 ng/mL and the T1/2 ([9]; 323 in Plasma) was 10.2 min. For the same compound, the Vss ([9]; 323 in Plasma) was 3.25 L/kg and the CL ([9]; 323 in Plasma) was “NR (343.84) mL/min/kg”.

From patent US20260015322A1, “DELIVERY OF THERAPEUTIC ALKALOID COMPOUNDS” (priority 2022, published 2026)
